Measurements as given in PubChem BioAssay AID463203 (Broad Institute, 2010).
Active and inactive are the calls of the source.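 The calls were made as follows: active = more than half of replicate measurements showing over 20% loss of kinase signal relative to plate controls; inconclusive = some but at most half of replicates over 20% loss; inactive = no replicate over 20% signal loss.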

Target: Glycogen synthase kinase-3 alpha (Homo sapiens) (UniProt P49840)
Experiment: concentration-response blocking of human GSK3A – biochemical, luminescence, cell-free homogeneous, retest, dose response (AID 463203)
Conditions: GSK-3 alpha enzyme, ADP-Glo luminescence, 60 min

Glycogen synthase kinase-3 alpha (Homo sapiens), sequence (P49840 whole entry, looked up): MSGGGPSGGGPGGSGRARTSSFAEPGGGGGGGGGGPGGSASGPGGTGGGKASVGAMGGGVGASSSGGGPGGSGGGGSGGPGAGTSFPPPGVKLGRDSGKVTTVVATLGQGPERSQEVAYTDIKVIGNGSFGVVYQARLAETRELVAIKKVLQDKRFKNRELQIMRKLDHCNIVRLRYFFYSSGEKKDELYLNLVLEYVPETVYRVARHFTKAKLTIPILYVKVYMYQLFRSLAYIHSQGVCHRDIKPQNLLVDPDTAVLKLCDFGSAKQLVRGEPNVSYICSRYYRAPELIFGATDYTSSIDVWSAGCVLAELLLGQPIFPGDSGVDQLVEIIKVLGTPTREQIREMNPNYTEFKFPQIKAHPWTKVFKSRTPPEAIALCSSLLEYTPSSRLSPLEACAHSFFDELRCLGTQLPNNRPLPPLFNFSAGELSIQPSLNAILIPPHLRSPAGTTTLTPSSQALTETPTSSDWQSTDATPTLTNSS

| Compound | AC50 |
| --- | --- |
| CCOC(=O)N1CCC(N2CCN(S(=O)(=O)c3ccc(NC(C)=O)cc3)CC2)CC1 | > 30 µM (inactive) |
| Cc1nc(N2CCOCC2)nc(N2CCCCC2)c1[N+](=O)[O-] | > 30 µM (inactive) |
| COc1cccc(NC(=O)CN(C)C(=O)C23CC4CC(CC(Cl)(C4)C2)C3)c1 | > 30 µM (inactive) |
| c1csc(CNc2ncnc3sccc23)c1 | > 30 µM (inactive) |
| CCOc1ccc(-c2nonc2NC(=O)c2ccco2)cc1 | > 30 µM (inactive) |
| CN(C)S(=O)(=O)c1cccc(NC(=S)NN=C(Cc2ccccc2)Cc2ccccc2)c1 | > 30 µM (inactive) |
| CCc1nnc(NC(=O)CCN2C(=O)c3ccccc3C2=O)s1 | > 30 µM (inactive) |
| C=CCn1c(O)c(C=NCCCn2ccnc2)c(=O)[nH]c1=O | 14 µM |
| CCN(CC)C(=O)c1ccc(NC(=O)Nc2ccccc2F)cc1 | 26.5 µM |
| Cc1ccc(N(CC(O)CN2CCCC2)S(=O)(=O)c2ccccc2)cc1 (centres undefined) | > 30 µM (inactive) |
| COc1ccc(/C=N\NC(=O)c2ccccc2Br)cc1COc1ccccc1 | > 30 µM (inactive) |
| COc1ccc(Nc2ccc(S(=O)(=O)N3CCCCC3)cc2[N+](=O)[O-])cc1OC | > 30 µM (inactive) |
| Cc1cccc(/C(N)=N/OC(=O)c2ccc3c(c2)OCO3)c1 | 24.7 µM |
| O=[N+]([O-])c1ccc(-c2nnc(-c3ccccc3)c(NCCCO)n2)cc1 | > 30 µM (inactive) |
| Cc1nc2cc(-c3ccccc3)ccc2o1 | > 30 µM (inactive) |
| CCOC(=O)c1c(NC(=O)CSc2nnc(CNc3ccc(C)cc3C)o2)sc(C)c1C | > 30 µM (inactive) |
| COc1ccccc1NC(=O)CSc1nnc(-c2ccc(C)cc2)o1 | > 30 µM (inactive) |
| OCc1cn(-c2ccccc2)nn1 | > 30 µM (inactive) |
| CCC(=NCCCO)c1c(O)n(-c2ccc(OC)cc2)c(=O)[nH]c1=O | > 30 µM (inactive) |
| Cc1csc(NC(=O)C2CC(=O)N(c3ccc4c(c3)OCCO4)C2)n1 (centres undefined) | > 30 µM (inactive) |
| Cc1c2c(n3c(nc4ccccc43)c1C#N)N(CCN(C)C)CC2 | 21.7 µM |
| Cc1cc(C)nc(NS(=O)(=O)c2cccs2)c1 | > 30 µM (inactive) |
| O=C(O)C1CC(O)CN1C(=S)Nc1ccccc1 (centres undefined) | > 30 µM (inactive) |
| CCOC(=O)c1cccnc1NC(=O)c1ccncc1 | > 30 µM (inactive) |
| Oc1ccc(/C=N/NC(=S)N/N=C/c2ccc(O)cc2)cc1 | 23.5 µM |
| CC(C)CC(=O)NC(=S)Nc1sc2c(c1C(N)=O)CCC2 | > 30 µM (inactive) |

| Compound | AC50 |
| --- | --- |
| Cc1ccc(S(=O)(=O)Nc2ccc(O)c3ncccc23)cc1 | > 30 µM (inactive) |
| Cc1ccc(C(=O)N/C(=C\c2ccc(-c3ccc(Cl)cc3)o2)C(=O)NCCCN(C)C)cc1 | > 30 µM (inactive) |
| COC(=O)c1ccc(CSc2ccc3nnc(-c4ccc(OC)cc4)n3n2)o1 | 17.1 µM |
| c1ccc(Cn2nc(-c3ccccc3)nc2-c2ccccc2)cc1 | > 30 µM (inactive) |
| Cc1cc(-c2ccccc2)c2c3c(c(-c4ccccc4)n2n1)c(=O)n(C)c(=O)n3C | > 30 µM (inactive) |
| COc1cccc(NC(=O)[C@@H]2CCCN2S(=O)(=O)c2cccc3cccnc23)c1 | 18.1 µM |
| Cc1ccc(/C=N/NC(=O)c2nnn(-c3nonc3N)c2-c2cccs2)cc1 | 1.04 µM |
| CCCCOc1ccc(-c2nnc(N)s2)cc1 | > 30 µM (inactive) |
| Cc1nc(NC(=O)c2ccc(Br)o2)sc1C | > 30 µM (inactive) |
| Nc1nc2n(n1)C(c1ccc(F)cc1)CC(c1ccc(F)cc1)N2 (centres undefined) | > 30 µM (inactive) |
| Cc1cc(NC(=O)c2sc(Nc3ccc(F)cc3)nc2N)no1 | 8.04 µM |
| CCOC(=O)c1[nH]c2c(c1-c1ccccc1)C(=O)CC(c1ccc(Cl)cc1)C2 (centres undefined) | > 30 µM (inactive) |
| O=[N+]([O-])c1ccc(O)c(/C=N/n2c(-c3ccccc3)n[nH]c2=S)c1 | 26.3 µM |
| COc1ccc(CNC(=O)c2cc(COc3c(F)cccc3F)on2)cc1OC | > 30 µM (inactive) |
| CCOc1ccc(Cn2nnc(C(=O)Nc3ccc(OC)cc3OC)c2N)cc1 | > 30 µM (inactive) |
| COc1ccc(/C=C2\Oc3cc(OCC(=O)N4CC(O)C[C@H]4C(=O)O)ccc3C2=O)cc1OC (some centres undefined) | > 30 µM (inactive) |
| CCN1CCN(c2nc(N)c([N+](=O)[O-])c(Nc3ccc(C)cc3)n2)CC1 | > 30 µM (inactive) |
| O=c1c2ccccc2[nH]c2ccccc12 | > 30 µM (inactive) |
| O=C(c1ccco1)N(Cc1ccccc1)c1cccc([N+](=O)[O-])c1 | > 30 µM (inactive) |
| N#Cc1c(Nc2ccccc2)c(C=NCCN2CCOCC2)c[nH]c1=O | > 30 µM (inactive) |
| C=CCOc1ccc(/C=N/n2cncn2)cc1OC | > 30 µM (inactive) |
| Cc1cc(O)c2c(-c3ccccc3)cc(=O)oc2c1 | > 30 µM (inactive) |
| c1ccc2c(c1)Sc1ccccc1-n1cnnc1-2 | > 30 µM (inactive) |
| O=C1Nc2ccccc2C1(O)c1ccccc1O (centres undefined) | > 30 µM (inactive) |
| CCC(=O)/C=C1\Sc2ccc(OC)cc2N1CCO | > 30 µM (inactive) |
| S=C(Nc1cccnc1)Nc1cccc2cnccc12 | > 30 µM (inactive) |

| Compound | AC50 |
| --- | --- |
| Cc1nc2c(C)cccn2c1/C(O)=C1\C(=O)C(=O)N(CCN2CCOCC2)C1c1cccs1 (centres undefined) | > 30 µM (inactive) |
| O=C(CSc1ccccc1)Nc1ccc2c(c1)C(=O)NC2=O | 6.21 µM |
| CC(C)Nc1nc(NC(C)C)nc(C(=O)OCCO)n1 | > 30 µM (inactive) |
| Nc1nc(N)nc(-c2cc(F)ccc2O)n1 | 18.9 µM |
| CCSc1nc2c(c(=O)[nH]1)C(c1ccccn1)C1=C(CC(C)(C)CC1=O)N2 (centres undefined) | > 30 µM (inactive) |
| O=c1[nH]c2c(s1)C(c1ccco1)C1C3CCC(C3)C1S2 (centres undefined) | 15.3 µM |
| Clc1ccc(CSc2nncn2-c2ccc3c(c2)OCCO3)cc1 | > 30 µM (inactive) |
| Cc1ccsc1C(=O)OCC(=O)N1C(C)CCCC1C (centres undefined) | > 30 µM (inactive) |
| O=C(Nc1ccccc1-c1nnc(SCc2ccccc2Cl)o1)c1ccccc1 | > 30 µM (inactive) |
| CC(C)OC(=O)/C(C#N)=C/c1c[nH]c2ccccc12 | > 30 µM (inactive) |
| O=C(c1ccc(Cl)cc1)c1cnc(Nc2ccccc2Cl)s1 | > 30 µM (inactive) |
| NCCNc1cc(N2CCCC2)ccc1[N+](=O)[O-] | > 30 µM (inactive) |
| COc1ccc(S(=O)(=O)Nc2ccc(S(=O)(=O)Nc3nc(C)cc(C)n3)cc2)cc1OC | > 30 µM (inactive) |
| C/C(=N/NC(=O)c1ccc(C)s1)c1ccncc1 | 27.3 µM |
| COc1cccc(-c2c(C(=O)N/N=C(\C)c3cccs3)nnn2-c2nonc2N)c1 | 1.61 µM |
| CN1C(=O)N(C)C2(c3ccccc3)Nn3c(s/c(=C/c4ccccc4)c3=O)=NC12c1ccccc1 (centres undefined) | > 30 µM (inactive) |
| CC(C)(C)C(=O)c1cnc(Nc2ccccc2Cl)s1 | > 30 µM (inactive) |
| COc1ccc(OC)c(NC(=O)c2nnn(Cc3ccc(Br)cc3F)c2N)c1 | > 30 µM (inactive) |
| CCOC(=O)c1ccc(NC(=O)CSCc2ccco2)cc1 | > 30 µM (inactive) |
| COc1ccc2nc(C)cc(N3CCN(S(=O)(=O)c4ccccc4F)CC3)c2c1 | 8.27 µM |
| COc1ccc(-c2cnc(N)nc2-c2ccc(OC)cc2O)cc1 | 9.75 µM |
| COc1ccccc1NC(=O)CSc1nnc(-c2ccccc2)o1 | > 30 µM (inactive) |
| CCOc1ccc(C2C3=C(CCCC3=O)Nc3ccc4ncccc4c32)cc1 (centres undefined) | > 30 µM (inactive) |
| COc1ccc(OCC(=O)N2CCN(c3nnc(-c4ccc(C)cc4)c4ccccc34)CC2)cc1 | > 30 µM (inactive) |
| O=C(N/N=C/c1ccc(Cl)c(Cl)c1)c1ccc2nc[nH]c2c1 | > 30 µM (inactive) |
| Cc1ccccc1OCCSc1nnc(C)n1-c1ccccc1 | > 30 µM (inactive) |

| Compound | AC50 |
| --- | --- |
| CCN(CC)CCNC(=O)c1ccc(NC(=O)C2CCN(c3ncnc4sc(C)c(C)c34)CC2)cc1 | 22.8 µM |
| O=C(CSc1cccc2cccnc12)N/N=C/c1ccc(O)cc1 | > 30 µM (inactive) |
| Fc1ccccc1N1CCN(CCCNc2ccc3nncn3n2)CC1 | > 30 µM (inactive) |
| CCC(=O)c1ccc(OCC(O)CN2CCCCC2)cc1 (centres undefined) | > 30 µM (inactive) |
| CC(=O)Nc1ccc(NC(=O)c2cc(-n3cnnc3)ccc2Cl)cc1 | > 30 µM (inactive) |
| O=C(O)Cn1c(=O)c2c3c(sc2n(Cc2ccccc2)c1=O)CCCC3 | > 30 µM (inactive) |
| Cc1ccc2oc(=O)c3cnn(CC(=O)N4CCCCC4C)c3c2c1 (centres undefined) | > 30 µM (inactive) |
| COc1ccc(OCc2nc(N)nc(Nc3ccccc3)n2)cc1 | > 30 µM (inactive) |
| Cc1cc2c(C)c(C)c(=O)[nH]c2cc1N | > 30 µM (inactive) |
| Cc1nnc(SCC(=O)Nc2sc3c(c2C(=O)c2ccccc2)CCCC3)s1 | > 30 µM (inactive) |
| Fc1cccc(Nc2nc(-c3ccncc3)nc3ccccc23)c1 | > 30 µM (inactive) |
| COc1cc(OC)cc(-c2nnc(SCc3c(F)cccc3Cl)o2)c1 | > 30 µM (inactive) |
| COc1cccc(-n2c(SCC(N)=O)nnc2-c2ccco2)c1 | > 30 µM (inactive) |
| COc1ccccc1N1CC(C(=O)Nc2nc(C)cs2)CC1=O (centres undefined) | > 30 µM (inactive) |
| CNC(=O)CSc1nnc(-c2ccco2)n1-c1cccc(OC)c1 | > 30 µM (inactive) |
| CCN(C(=O)CN1CCCCC1)c1c(N)n(Cc2ccccc2)c(=O)[nH]c1=O | > 30 µM (inactive) |
| Cc1ccnc(NC(=O)CCC(=O)N(CC(=O)NCc2ccc(F)cc2)Cc2ccccc2)c1 | 11.4 µM |
| CC1(C)OC2OC(COC(=O)c3ccccc3)C3OC(C)(C)OC3C2O1 (centres undefined) | > 30 µM (inactive) |
| O=C(c1ccco1)N(Cc1ccc([N+](=O)[O-])cc1)c1ccc(Br)cc1 | > 30 µM (inactive) |
| COc1ccccc1NC(=O)c1ccc(C(=O)c2ccccc2)o1 | > 30 µM (inactive) |
| N#Cc1sc2nc(-c3cccs3)cc(-c3ccccc3)c2c1N | > 30 µM (inactive) |
| N#Cc1ccccc1Cn1cc(/C=N/Nc2ccc([N+](=O)[O-])cn2)c2ccccc21 | > 30 µM (inactive) |
| CCCCCCN=C(CC)c1c(O)n(CCCC)c(=O)[nH]c1=O | > 30 µM (inactive) |
| CCc1ccccc1NC(=O)CSc1nnc([C@@H](N)Cc2c[nH]c3ccccc23)o1 | > 30 µM (inactive) |
| O=C(CSc1nnc(-c2ccc(O)cc2)o1)Nc1ccc2c(c1)OCCO2 | 0.463 µM |
| O=Cc1c(NCCc2cccc(F)c2)c2ccccc2[nH]c1=O | 15.2 µM |
